This is an account of results in US10125134B2 (Mirati Therapeutics, Inc., priority 2016, dated 2018).

For orientation: IC50 means the midpoint of a concentration-inhibition curve.

Structures can show the parent of a compound that is named as a salt. Where two headings read alike, the source gives them in different places.

Experiment [1] has as its system NCI-H358 cells (express KRas G12C), Phospho-ERK. Briefly: Cellular inhibition of KRas G12C: Phospho-ERK in NCI-H358 cells. It is filed as cell-based. The following applies: Homo sapiens, pERK(Thr202/Tyr204) normalized with GAPDH, NCI-H358 cells, 3 hours, read-out: IC50. In outline: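 IC50 derived by 4-parameter fit of GAPDH-normalized pERK(Thr202/Tyr204) signal, as percent of DMSO control. Signal came from in-cell immunodetection with infrared secondaries after 3 h compound exposure of KRas G12C NCI-H358 cells at 0.5% DMSO.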

The next experiment addresses KRas G12C (Homo sapiens, UniProt P01116, C118S/C51S/C80L/G12C). Briefly: KRas G12C Modification Assay (LCMS detection of covalent adduct). It is filed as binding. The following applies: normalized percent of control; tested at 5 μM concentration for 3 hours. In outline:
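Cys-light KRas G12C mutant protein incubated with compound in K-Ras assay buffer, reactions quenched at set time points with 25 mM acetic acid and analysed by intact-protein LC/MS on a C-3 column. Deconvoluted mass heights expressed as percent of control (POC) relative to compound-free protein.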

Take `C=CC(=O)N1CCN(c2nc(OCCCN3CCOCC3)nc3c2CCN(c2ccc(O)cc2OC(F)(F)F)C3)CC1` [Example 106, 1-(4-(7-(4-hydroxy-2-(trifluoromethoxy)phenyl)-2-(3-morpholinopropoxy)-5,6,7,8-tetrahydropyrido[3,4-d]pyrimidin-4-yl)piperazin-1-yl)prop-2-en-1-one]: in experiment [1], the IC50 is greater than 1000 nM. Further, at KRas G12C, the POC result is reported as “A (“A”≤25% POC)”.

On to `C=CC(=O)N1CCN(c2nc(OCCN(C)CCOC)nc3c2CCN(c2cc(O)cc4ccccc24)C3)CC1` [Example 107, 1-(4-(7-(3-hydroxynaphthalen-1-yl)-2-(2-((2-methoxyethyl)(methyl)amino)ethoxy)-5,6,7,8-tetrahydropyrido[3,4-d]pyrimidin-4-yl)piperazin-1-yl)prop-2-en-1-one], for which the concentration for half-maximal inhibition (IC50) in experiment [1] (NCI-H358, 3 h) was greater than 1000 nM. For the same compound, the POC result at KRas G12C is reported as “C (“C”>50% POC)”.

For the compound `C=CC(=O)N1CCN(c2nc(OCCN3CCC(OC)CC3)nc3c2CCN(c2cc(O)cc4ccccc24)C3)CC1` [Example 108, 1-(4-(7-(3-hydroxynaphthalen-1-yl)-2-(2-(4-methoxypiperidin-1-yl)ethoxy)-5,6,7,8-tetrahydropyrido[3,4-d]pyrimidin-4-yl)piperazin-1-yl)prop-2-en-1-one], the IC50 in experiment [1] (NCI-H358, 3 h) lay in the range of 0.1 to 1000 nM. In addition, at KRas G12C, the POC result is given as “C (“C”>50% POC)”.

Consider `C=CC(=O)N1CCN(c2nc(OCCN3CCC(F)(F)CC3)nc3c2CCN(c2cc(O)cc4ccccc24)C3)CC1` [Example 109, 1-(4-(2-(2-(4,4-difluoropiperidin-1-yl)ethoxy)-7-(3-hydroxynaphthalen-1-yl)-5,6,7,8-tetrahydropyrido[3,4-d]pyrimidin-4-yl)piperazin-1-yl)prop-2-en-1-one], for which, in experiment [1] (NCI-H358, 3 h), the IC50 is greater than 1000 nM. Moreover, at KRas G12C, the POC result was “C (“C”>50% POC)”.

As for `C=CC(=O)N1CCN(c2nc(OC[C@@H]3CCN(C)C3)nc3c2CCN(c2cc(O)cc4ccccc24)C3)CC1` [Example 110, (R)-1-(4-(7-(3-hydroxynaphthalen-1-yl)-2-((1-methylpyrrolidin-3-yl)methoxy)-5,6,7,8-tetrahydropyrido[3,4-d]pyrimidin-4-yl)piperazin-1-yl)prop-2-en-1-one], the IC50 in experiment [1] (NCI-H358, 3 h) was 0.1 to 1000 nM. Also, the POC entry on KRas G12C is on record as “C (“C”>50% POC)”.

In the case of `C=CC(=O)N1CCN(c2nc(OCCN3CCC[C@H](F)C3)nc3c2CCN(c2cc(O)cc4ccccc24)C3)CC1` [Example 111, (S)-1-(4-(2-(2-(3-fluoropiperidin-1-yl)ethoxy)-7-(3-hydroxynaphthalen-1-yl)-5,6,7,8-tetrahydropyrido[3,4-d]pyrimidin-4-yl)piperazin-1-yl)prop-2-en-1-one], the IC50 in experiment [1] (NCI-H358, 3 h) lay in the range of 0.1 to 1000 nM. Moreover, at KRas G12C, the POC entry was “C (“C”>50% POC)”.

Take `C=CC(=O)N1CCN(c2nc(OCCCN3CCOCC3)nc3c2CCN(c2cc(C(F)F)cc4ccccc24)C3)CC1` [Example 112, 1-(4-(7-(3-(difluoromethyl)naphthalen-1-yl)-2-(3-morpholinopropoxy)-5,6,7,8-tetrahydropyrido[3,4-d]pyrimidin-4-yl)piperazin-1-yl)prop-2-en-1-one]: the IC50 in experiment [1] is greater than 1000 nM. Besides, at KRas G12C, the POC result is “A (“A”≤25% POC)”.

As to `C=CC(=O)N1CCN(c2ncnc3c2CC(=O)N(c2cc(O)cc4ccccc24)C3)CC1` [Example 113, 4-(4-acryloylpiperazin-1-yl)-7-(3-hydroxynaphthalen-1-yl)-7,8-dihydropyrido[3,4-d]pyrimidin-6(5H)-one], the IC50 in experiment [1] was greater than 1000 nM. Moreover, the POC result on KRas G12C is given as “C (“C”>50% POC)”.

Turning to `C=CC(=O)N1CC2(C1)CN(c1ncnc3c1CC(=O)N(c1cc(O)cc4ccccc14)C3)C2` [Example 114, 4-(6-acryloyl-2,6-diazaspiro[3.3]heptan-2-yl)-7-(3-hydroxynaphthalen-1-yl)-7,8-dihydropyrido[3,4-d]pyrimidin-6(5H)-one], the IC50 in experiment [1] is greater than 1000 nM. Besides, at KRas G12C, the POC result was “B (“B”>25% POC−≤50% POC)”.

Take `C=CC(=O)N1CCN(c2nc(O[C@H](C)CN(C)C)nc3c2CCN(c2cc(O)cc4ccccc24)C3)[C@@H](C)C1` [Example 115, 1-((S)-4-(2-(((R)-1-(dimethylamino)propan-2-yl)oxy)-7-(3-hydroxynaphthalen-1-yl)-5,6,7,8-tetrahydropyrido[3,4-d]pyrimidin-4-yl)-3-methylpiperazin-1-yl)prop-2-en-1-one]: the IC50 in experiment [1] lay within 0.1 to 1000 nM. In addition, on KRas G12C, the POC entry is “C (“C”>50% POC)”.

Turning to `C=CC(=O)N1CCN(c2nc(OCCN(C)C)nc3c2CCN(c2cc(O)cc4ccccc24)C3)[C@@H](C)C1` [Example 116, (S)-1-(4-(2-(2-(dimethylamino)ethoxy)-7-(3-hydroxynaphthalen-1-yl)-5,6,7,8-tetrahydropyrido[3,4-d]pyrimidin-4-yl)-3-methylpiperazin-1-yl)prop-2-en-1-one], in experiment [1] (NCI-H358, 3 h), the IC50 was in the range of 0.1 to 1000 nM. Also, on KRas G12C, the POC entry is “C (“C”>50% POC)”.

As to `C=CC(=O)N1CCN(c2nc(OCCN3CCOCC3)nc3c2CCN(c2cc(O)cc4ccccc24)C3)CC1` [Example 117, 1-(4-(7-(3-hydroxynaphthalen-1-yl)-2-(2-morpholinoethoxy)-5,6,7,8-tetrahydropyrido[3,4-d]pyrimidin-4-yl)piperazin-1-yl)prop-2-en-1-one], the half-inhibitory concentration (IC50) in experiment [1] (NCI-H358, 3 h) was greater than 1000 nM. Further, the POC result at KRas G12C is listed as “C (“C”>50% POC)”.

On to `C=CC(=O)N1CCN(c2nc(N3CCOCC3)nc3c2CCN(c2cc(O)cc4ccccc24)C3)CC1` [Example 118, 1-(4-(7-(3-hydroxynaphthalen-1-yl)-2-morpholino-5,6,7,8-tetrahydropyrido[3,4-d]pyrimidin-4-yl)piperazin-1-yl)prop-2-en-1-one], for which the IC50 in experiment [1] (NCI-H358, 3 h) was greater than 1000 nM. In addition, at KRas G12C, the POC entry was “A (“A”≤25% POC)”.

For the compound `C=CC(=O)N1CCN(c2nc(N3CCCC3)nc3c2CCN(c2cc(O)cc4ccccc24)C3)CC1` [Example 119, 1-(4-(7-(3-hydroxynaphthalen-1-yl)-2-(pyrrolidin-1-yl)-5,6,7,8-tetrahydropyrido[3,4-d]pyrimidin-4-yl)piperazin-1-yl)prop-2-en-1-one], the IC50 in experiment [1] (NCI-H358, 3 h) is greater than 1000 nM. The POC entry on KRas G12C is recorded as “B (“B”>25% POC−≤50% POC)”.

As for `C=CC(=O)N1CCN(c2nc(O[C@H](C)CN3CCCC3)nc3c2CCN(c2cc(O)cc4ccccc24)C3)CC1` [Example 120, (R)-1-(4-(7-(3-hydroxynaphthalen-1-yl)-2-((1-(pyrrolidin-1-yl)propan-2-yl)oxy)-5,6,7,8-tetrahydropyrido[3,4-d]pyrimidin-4-yl)piperazin-1-yl)prop-2-en-1-one], the IC50 in experiment [1] (NCI-H358, 3 h) is 0.1 to 1000 nM. At KRas G12C, the POC result is recorded as “C (“C”>50% POC)”.

On to `C=CC(=O)N1CCN(c2nc(OCCCN3CCOCC3)nc3c2CCN(c2cc(O)cc4ccccc24)C3=O)CC1` [Example 121, 4-(4-acryloylpiperazin-1-yl)-7-(3-hydroxynaphthalen-1-yl)-2-(3-morpholinopropoxy)-6,7-dihydropyrido[3,4-d]pyrimidin-8(5H)-one], for which the IC50 in experiment [1] was greater than 1000 nM. Further, the POC result at KRas G12C is “C (“C”>50% POC)”.

On to `C[C@H](CN(C)C)Oc1nc2c(c(N3CCN(C(=O)/C=C/CN(C)C)CC3)n1)CCN(c1cc(O)cc3ccccc13)C2` [Example 122, (R,E)-4-(dimethylamino)-1-(4-(2-((1-(dimethylamino)propan-2-yl)oxy)-7-(3-hydroxynaphthalen-1-yl)-5,6,7,8-tetrahydropyrido[3,4-d]pyrimidin-4-yl)piperazin-1-yl)but-2-en-1-one bis-trifluoroacetate], for which the IC50 in experiment [1] was greater than 1000 nM. For the same compound, the POC entry on KRas G12C is “C (“C”>50% POC)”.

`C=CC(=O)N1CCN(c2nc(OCC(O)CN3CCOCC3)nc3c2CCN(c2cc(O)cc4ccccc24)C3)CC1` (stereo not drawn) [Example 123, 1-(4-(2-(2-hydroxy-3-morpholinopropoxy)-7-(3-hydroxynaphthalen-1-yl)-5,6,7,8-tetrahydropyrido[3,4-d]pyrimidin-4-yl)piperazin-1-yl)prop-2-en-1-one]: the IC50 in experiment [1] (NCI-H358, 3 h) was greater than 1000 nM. On KRas G12C, the POC result is recorded as “A (“A”≤25% POC)”.

For `C=CC(=O)N1CCN(c2nc(O[C@H](C)CN(C)C)nc3c2CCN(c2cc(O)c(F)c4ccccc24)C3)CC1` [Example 124, (R)-1-(4-(2-((1-(dimethylamino)propan-2-yl)oxy)-7-(4-fluoro-3-hydroxynaphthalen-1-yl)-5,6,7,8-tetrahydropyrido[3,4-d]pyrimidin-4-yl)piperazin-1-yl)prop-2-en-1-one], the IC50 in experiment [1] is greater than 1000 nM. Also, the POC result on KRas G12C is on record as “C (“C”>50% POC)”.

Regarding `C=CC(=O)N1CCN(c2nc(O[C@H](C)CN(C)C)nc3c2CCN(c2cc(O)c(Cl)c4ccccc24)C3)CC1` [Example 125, (R)-1-(4-(7-(4-chloro-3-hydroxynaphthalen-1-yl)-2-((1-(dimethylamino)propan-2-yl)oxy)-5,6,7,8-tetrahydropyrido[3,4-d]pyrimidin-4-yl)piperazin-1-yl)prop-2-en-1-one], the IC50 in experiment [1] is greater than 1000 nM. For the same compound, at KRas G12C, the POC result was “A (“A”≤25% POC)”.

As for `C=CC(=O)N1CCN(c2nc(OCCc3ccccn3)nc3c2CCN(c2cc(O)cc4ccccc24)C3)CC1` [Example 126, 1-(4-(7-(3-hydroxynaphthalen-1-yl)-2-(2-(pyridin-2-yl)ethoxy)-5,6,7,8-tetrahydropyrido[3,4-d]pyrimidin-4-yl)piperazin 1-yl)prop-2-en-1-one trifluoroacetate], the IC50 in experiment [1] (NCI-H358, 3 h) is greater than 1000 nM. In addition, at KRas G12C, the POC result is listed as “C (“C”>50% POC)”.
